Test results: PubChem BioAssay AID2060910 (Molecular Pharmacology Branch, DTP, NCI, 2025)

Test system: 242566-281-R-J2-PDC complex spheroid viability
Experiment: Anticancer human tumor 242566-281-R-J2-PDC patient-derived pancreatic carcinoma cell line growth inhibition [RAS]
Conditions: for IC50: curve of first compound; for viability, T/C: stronger effect = lower value
Summary of the method: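 Agents were tested in combination matrices in half-log decrements from a top concentration at or near clinical Cmax (10 microM if undetermined). Targets were multi-cell spheroids of tumour lines plus HUVEC and MSC stromal cells.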

[1] = second compound 0.000949 µM, first compound 0.0316 µM
[2] = second compound 0.000949 µM, first compound 0.1 µM
[3] = second compound 0.000949 µM, first compound 0.316 µM
[4] = second compound 0.000949 µM, first compound 1 µM
[5] = second compound 0.000949 µM, first compound 3.16 µM
[6] = second compound 0.000949 µM, first compound 10 µM
[7] = second compound 0.003 µM, first compound 0.0316 µM
[8] = second compound 0.003 µM, first compound 0.1 µM
[9] = second compound 0.003 µM, first compound 0.316 µM
[10] = second compound 0.003 µM, first compound 1 µM
[11] = second compound 0.003 µM, first compound 3.16 µM
[12] = second compound 0.003 µM, first compound 10 µM
[13] = second compound 0.00949 µM, first compound 0.0316 µM
[14] = second compound 0.00949 µM, first compound 0.1 µM
[15] = second compound 0.00949 µM, first compound 0.316 µM
[16] = second compound 0.00949 µM, first compound 1 µM
[17] = second compound 0.00949 µM, first compound 3.16 µM
[18] = second compound 0.00949 µM, first compound 10 µM
[19] = second compound 0.03 µM, first compound 0.0316 µM
[20] = second compound 0.03 µM, first compound 0.1 µM
[21] = second compound 0.03 µM, first compound 0.316 µM
[22] = second compound 0.03 µM, first compound 1 µM
[23] = second compound 0.03 µM, first compound 3.16 µM
[24] = second compound 0.03 µM, first compound 10 µM
[25] = second compound 0.0949 µM, first compound 0.0316 µM
[26] = second compound 0.0949 µM, first compound 0.1 µM
[27] = second compound 0.0949 µM, first compound 0.316 µM
[28] = second compound 0.0949 µM, first compound 1 µM
[29] = second compound 0.0949 µM, first compound 3.16 µM
[30] = second compound 0.0949 µM, first compound 10 µM
[31] = second compound 0.3 µM, first compound 0.0316 µM
[32] = second compound 0.3 µM, first compound 0.1 µM
[33] = second compound 0.3 µM, first compound 0.316 µM
[34] = second compound 0.3 µM, first compound 1 µM
[35] = second compound 0.3 µM, first compound 3.16 µM
[36] = second compound 0.3 µM, first compound 10 µM
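Note: spheroids exposed to compound for 7 days before readout.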
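Throughout, for viability, T/C: 100% = DMSO vehicle control wells.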

## CC(Nc1ccc2c(c1)OCCn1cc(N3C(=O)OCC3C(F)F)nc1-2)C(N)=O (centres undefined) + CCn1c(-c2cc(N3CCN(C)CC3)cnc2C(C)OC)c2c3cc(ccc31)-c1csc(n1)CC(NC(=O)C1CC1C)C(=O)N1CCCC(N1)C(=O)OCC(C)(C)C2
Second compound 0.000949 µM
  IC50: 364 nM
Second compound 0.003 µM
  IC50: 95.1 nM
Second compound 0.00949 µM
  IC50: < 31.6 nM
Second compound 0.03 µM
  IC50: < 31.6 nM
Second compound 0.0949 µM
  IC50: < 31.6 nM
Second compound 0.3 µM
  IC50: < 31.6 nM
[1]
  viability, T/C: 85.8%
[2]
  viability, T/C: 85.2%
[3]
  viability, T/C: 39.8%
[4]
  viability, T/C: 39.1%
[5]
  viability, T/C: 26.5%
[6]
  viability, T/C: 11.5%
[7]
  viability, T/C: 70.6%
[8]
  viability, T/C: 47.3%
[9]
  viability, T/C: 32.9%
[10]
  viability, T/C: 22.4%
[11]
  viability, T/C: 14.5%
[12]
  viability, T/C: 5.29%
[13]
  viability, T/C: 40.7%
[14]
  viability, T/C: 25.1%
[15]
  viability, T/C: 18.2%
[16]
  viability, T/C: 11.3%
[17]
  viability, T/C: 4.65%
[18]
  viability, T/C: 3.19%
[19]
  viability, T/C: 26.4%
[20]
  viability, T/C: 17.9%
[21]
  viability, T/C: 10.6%
[22]
  viability, T/C: 5.37%
[23]
  viability, T/C: 1.87%
[24]
  viability, T/C: 1.22%
[25]
  viability, T/C: 16.7%
[26]
  viability, T/C: 11.5%
[27]
  viability, T/C: 7.81%
[28]
  viability, T/C: 3.68%
[29]
  viability, T/C: 1.35%
[30]
  viability, T/C: 0.91%
[31]
  viability, T/C: 16.5%
[32]
  viability, T/C: 11.3%
[33]
  viability, T/C: 5.47%
[34]
  viability, T/C: 3.22%
[35]
  viability, T/C: 1.55%
[36]
  viability, T/C: 1.07%

## C[C@@H](NC(=O)c1ncnc(N)c1Cl)c1ncc(C(=O)Nc2cc(C(F)(F)F)c(Cl)cn2)s1 + CCn1c(-c2cc(N3CCN(C)CC3)cnc2C(C)OC)c2c3cc(ccc31)-c1csc(n1)CC(NC(=O)C1CC1C)C(=O)N1CCCC(N1)C(=O)OCC(C)(C)C2
Second compound 0.000949 µM
  IC50: > 10000 nM
Second compound 0.003 µM
  IC50: > 10000 nM
Second compound 0.00949 µM
  IC50: > 10000 nM
Second compound 0.03 µM
  IC50: < 31.6 nM
Second compound 0.0949 µM
  IC50: < 31.6 nM
Second compound 0.3 µM
  IC50: < 31.6 nM
[1]
  viability, T/C: 98.8%
[2]
  viability, T/C: 114%
[3]
  viability, T/C: 82.7%
[4]
  viability, T/C: 97.9%
[5]
  viability, T/C: 106%
[6]
  viability, T/C: 76.4%
[7]
  viability, T/C: 89.8%
[8]
  viability, T/C: 73.5%
[9]
  viability, T/C: 71.6%
[10]
  viability, T/C: 79.2%
[11]
  viability, T/C: 92.7%
[12]
  viability, T/C: 62.3%
[13]
  viability, T/C: 54%
[14]
  viability, T/C: 49.3%
[15]
  viability, T/C: 54.7%
[16]
  viability, T/C: 63.3%
[17]
  viability, T/C: 58.9%
[18]
  viability, T/C: 52.7%
[19]
  viability, T/C: 35.3%
[20]
  viability, T/C: 35.2%
[21]
  viability, T/C: 39.9%
[22]
  viability, T/C: 35.4%
[23]
  viability, T/C: 29.8%
[24]
  viability, T/C: 40.1%
[25]
  viability, T/C: 22.9%
[26]
  viability, T/C: 24.8%
[27]
  viability, T/C: 25.7%
[28]
  viability, T/C: 27.2%
[29]
  viability, T/C: 23.6%
[30]
  viability, T/C: 26.3%
[31]
  viability, T/C: 21.2%
[32]
  viability, T/C: 23.5%
[33]
  viability, T/C: 22.2%
[34]
  viability, T/C: 19.9%
[35]
  viability, T/C: 21.9%
[36]
  viability, T/C: 22.6%
